Structures can show the parent of a compound that is named as a salt.
Target: T1, Isoform 2 of Nuclear receptor ROR-alpha (Alpha-2) (Homo sapiens, UniProt P35398)
T1 sequence (P35398 whole entry): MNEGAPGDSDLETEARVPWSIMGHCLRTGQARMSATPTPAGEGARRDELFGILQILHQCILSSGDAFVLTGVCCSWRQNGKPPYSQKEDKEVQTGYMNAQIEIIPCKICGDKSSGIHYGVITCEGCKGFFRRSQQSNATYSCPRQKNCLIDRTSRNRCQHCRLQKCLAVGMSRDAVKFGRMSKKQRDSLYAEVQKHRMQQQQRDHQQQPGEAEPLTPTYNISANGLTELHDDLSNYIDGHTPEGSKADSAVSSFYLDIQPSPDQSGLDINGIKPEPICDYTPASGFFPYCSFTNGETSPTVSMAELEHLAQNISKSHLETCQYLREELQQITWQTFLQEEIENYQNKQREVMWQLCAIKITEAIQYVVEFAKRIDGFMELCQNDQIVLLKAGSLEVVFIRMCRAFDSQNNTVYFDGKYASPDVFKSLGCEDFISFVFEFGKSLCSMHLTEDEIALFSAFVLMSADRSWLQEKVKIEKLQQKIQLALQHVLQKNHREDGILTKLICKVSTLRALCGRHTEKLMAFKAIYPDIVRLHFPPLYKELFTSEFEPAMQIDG
Experiment: RORA Gal4 reporter activation in CHO-K1 cells, dose response, counter-screen for SF-1 activator project, cell-based, Gal4-RORA LBD, luciferase luminescence (AID 675)

[1] = inactive by the depositor's call

| Structure (SMILES) | EC50 [nM] | EC50 [1] [nM] |
| --- | --- | --- |
| Cc1cccc(-n2ccnc2SCC(=O)Nc2nccs2)c1 [2-[1-(3-methylphenyl)imidazol-2-yl]sulfanyl-N-(1,3-thiazol-2-yl)acetamide] | > 11000 |  |
| C=CCn1c(C)cc(C(=O)CSc2nc(O)c3ccccc3n2)c1C [2-[2-(2,5-dimethyl-1-prop-2-enyl-pyrrol-3-yl)-2-oxidanylidene-ethyl]sulfanyl-1H-quinazolin-4-one] | 609 |  |
| OCCOCCNc1ncnc2c1cnn2-c1ccc(Cl)cc1 [2-[2-[[1-(4-chlorophenyl)-4-pyrazolo[3,4-d]pyrimidinyl]amino]ethoxy]ethanol] | 595 |  |
| CCOC(=O)CSc1nc2ccccc2c(=O)n1NC(=O)c1ccccc1 [2-[(3-benzamido-4-keto-quinazolin-2-yl)thio]acetic acid ethyl ester] | 933 |  |
| CCc1nnc(NC(=O)CSc2nc3c(cc2C#N)CCC3)s1 [2-[(3-cyano-1-pyrindan-2-yl)thio]-N-(5-ethyl-1,3,4-thiadiazol-2-yl)acetamide] | > 407 |  |
| CCOC(=O)CSc1nc(-c2ccncc2)ccc1C#N [2-[(3-cyano-6-pyridin-4-yl-2-pyridinyl)thio]acetic acid ethyl ester] | 1710 |  |
| Cc1csc2nc(CSc3nc4ccccc4o3)cn12 [2-[(3-methyl-6-imidazo[2,1-b]thiazolyl)methylthio]-1,3-benzoxazole] | 3920 |  |
| Nn1c(SCC(=O)Nc2ccc(F)cc2F)nnc1-c1cccnc1 [2-[(4-amino-5-pyridin-3-yl-1,2,4-triazol-3-yl)sulfanyl]-N-(2,4-difluorophenyl)acetamide] | 6790 |  |
| CCc1nnc(NC(=O)CSc2nc(C)c3c(c2C#N)CCCC3)s1 [2-[(4-cyano-1-methyl-5,6,7,8-tetrahydroisoquinolin-3-yl)sulfanyl]-N-(5-ethyl-1,3,4-thiadiazol-2-yl)acetamide] | 1230 |  |
| O=C1CCCC(=O)C1=CNc1ccc(O)cc1 [2-[(4-hydroxyanilino)methylidene]cyclohexane-1,3-dione] | > 99000 |  |
| CCOC(=O)CSc1nc(-c2ccc3c(c2)OCO3)ccc1C#N [2-[[6-(1,3-benzodioxol-5-yl)-3-cyano-2-pyridinyl]thio]acetic acid ethyl ester] | 5650 |  |
| O=C(CNc1ccccc1)Nc1ccc(F)cc1 [2-anilino-N-(4-fluorophenyl)acetamide] | 3190 |  |
| Cc1nc2sc(-c3ccccc3)cc2c(=O)n1-n1cccc1 [2-methyl-6-phenyl-3-(1-pyrrolyl)-4-thieno[2,3-d]pyrimidinone] | 112 |  |
| Cc1ccc(C(=O)Nc2nnc(-c3cccs3)s2)cc1C [3,4-dimethyl-N-(5-thiophen-2-yl-1,3,4-thiadiazol-2-yl)benzamide] | 786 |  |
| Cc1ccc(-n2c(C)cc(C(=O)COC(=O)c3c(C)noc3C)c2C)cc1 [3,5-dimethyl-4-isoxazolecarboxylic acid [2-[2,5-dimethyl-1-(4-methylphenyl)-3-pyrrolyl]-2-oxoethyl] ester] | 1630 |  |
| COc1cc(C2c3c(c(O)n(-c4ccccc4)c3O)ON2c2ccccc2)ccc1O (stereo not drawn) [3-(3-methoxy-4-oxidanyl-phenyl)-2,5-diphenyl-3a,6a-dihydro-3H-pyrrolo[3,4-d][1,2]oxazole-4,6-dione] | > 33000 |  |
| COc1ccc2nc3sc(C(=O)NCc4cccs4)c(N)c3cc2c1 [3-Amino-6-methoxy-thieno[2,3-b]quinoline-2-carboxylic acid (thiophen-2-ylmethyl)-amide] | > 407 |  |
| O=c1c2ccccc2nnn1CSc1nnc(COc2ccc(Cl)cc2)n1Cc1ccco1 [3-[[5-[(4-chloranylphenoxy)methyl]-4-(furan-2-ylmethyl)-1,2,4-triazol-3-yl]sulfanylmethyl]-1,2,3-benzotriazin-4-one] | 3690 |  |
| COc1cccc(C(=O)Nc2cccc(-c3nnc(-c4ccccc4)o3)c2)c1 [3-methoxy-N-[3-(5-phenyl-1,3,4-oxadiazol-2-yl)phenyl]benzamide] | 1730 |  |
| COc1ccc(-c2nc3c(Br)c(N)c(Br)cc3o2)cc1 [4,6-bis(bromanyl)-2-(4-methoxyphenyl)-1,3-benzoxazol-5-amine] | 693 |  |
| c1ccc2nc3c(nc2c1)c1ccccc1n3CCN1CCOCC1 [4-(2-indolo[3,2-b]quinoxalin-6-ylethyl)morpholine] |  | 11300 |
| COc1ccc(CNc2ccc(C(=O)O)cc2)cc1 [4-(p-anisylamino)benzoic acid] | 1500 |  |
| CCCOC(=O)c1ccc(NC(=O)C2CCCO2)cc1 (stereo not drawn) [4-(tetrahydrofuran-2-carbonylamino)benzoic acid propyl ester] | > 3670 |  |
| COc1cccc2c(O)c(C(=O)NCc3cccs3)cnc12 [4-Hydroxy-8-methoxy-quinoline-3-carboxylic acid (thiophen-2-ylmethyl)-amide] | 3120 |  |

| Structure (SMILES) | EC50 [nM] | EC50 [1] [nM] |
| --- | --- | --- |
| Cc1cccnc1Nc1nc(-c2ccc(O)cc2O)cs1 [4-[2-(3-Methyl-pyridin-2-ylamino)-thiazol-4-yl]-benzene-1,3-diol] | 1890 |  |
| CC(C)(CC(=O)O)Cc1nc(-c2ccc(Cl)cc2)no1 [4-[3-(4-chlorophenyl)-1,2,4-oxadiazol-5-yl]-3,3-dimethyl-butanoic acid] | > 11000 |  |
| CCOC(=O)N1CCN(S(=O)(=O)c2ccc(C(=O)Nc3sc4c(c3C#N)CCC4)cc2)CC1 [4-[4-[(3-cyano-5,6-dihydro-4H-cyclopenta[b]thiophen-2-yl)carbamoyl]phenyl]sulfonylpiperazine-1-carboxylic acid ethyl ester] | 636 |  |
| COC(=O)c1ccc(C(=O)C(C#N)c2nc3ccccc3s2)cc1 (stereo not drawn) [4-[(2Z)-2-(3H-1,3-benzothiazol-2-ylidene)-2-cyano-1-oxoethyl]benzoic acid methyl ester] | 1610 |  |
| Cc1ccc(C(=O)Nc2ncc(Cc3ccccc3)s2)o1 [5-Methyl-furan-2-carboxylic acid (5-benzyl-thiazol-2-yl)-amide] | > 407 |  |
| Cc1ccc(C(=O)Nc2ncc(Cc3ccc(F)cc3)s2)o1 [5-Methyl-furan-2-carboxylic acid [5-(4-fluoro-benzyl)-thiazol-2-yl]-amide] | > 407 |  |
| O=C(Nc1nccs1)c1ccc(COc2ccc(F)cc2)o1 [5-[(4-fluoranylphenoxy)methyl]-N-(1,3-thiazol-2-yl)furan-2-carboxamide] | 4710 |  |
| Nc1c(C(=O)NCc2ccco2)nnn1-c1ccccc1 [5-amino-N-(2-furanylmethyl)-1-phenyl-4-triazolecarboxamide] | > 3670 |  |
| CC1(C)Cc2c(sc(NC(=O)c3ccc(Br)o3)c2C#N)CO1 [5-bromanyl-N-(3-cyano-5,5-dimethyl-4,7-dihydrothieno[2,3-c]pyran-2-yl)furan-2-carboxamide] | 752 |  |
| COc1ccc(OC)c2sc(NC(=O)c3ccc(Br)s3)nc12 [5-bromanyl-N-(4,7-dimethoxy-1,3-benzothiazol-2-yl)thiophene-2-carboxamide] | > 99000 |  |
| O=C(Nc1cccc(-c2nnc(-c3ccccc3)o2)c1)c1ccc(Br)o1 [5-bromanyl-N-[3-(5-phenyl-1,3,4-oxadiazol-2-yl)phenyl]furan-2-carboxamide] | 8560 |  |
| CCc1ccc(C(=O)NCc2cccs2)s1 [5-ethyl-N-(2-thenyl)thiophene-2-carboxamide] | > 3670 |  |
| c1ccc(-c2cnc(CSc3nnc4ccccn34)o2)cc1 [5-phenyl-2-([1,2,4]triazolo[4,3-a]pyridin-3-ylsulfanylmethyl)-1,3-oxazole] | > 1220 |  |
| CCN(CC)c1ccc(-n2cc3c(=O)n(C)c(=O)n(C)c3c2)cc1 [6-(4-Diethylamino-phenyl)-1,3-dimethyl-1,6-dihydro-pyrrolo[3,4-d]pyrimidine-2,4-dione] |  | 12500 |
| COc1ccc(-c2cn3ccsc3n2)cc1 [6-(4-methoxyphenyl)imidazo[2,1-b][1,3]thiazole] | 283 |  |
| CCOC(=O)c1cnc2c(-c3ccccc3)cnn2c1N [7-amino-3-phenyl-6-pyrazolo[1,5-a]pyrimidinecarboxylic acid ethyl ester] | 356 |  |
| COCC(C)NC(=O)c1noc2c1CCc1cc(OC)ccc1-2 (stereo not drawn) [7-methoxy-N-(1-methoxypropan-2-yl)-4,5-dihydrobenzo[g][1,2]benzoxazole-3-carboxamide] | 1270 |  |
| CCc1nc(Nc2ccc3nccnc3c2)c2oc3ccccc3c2n1 [(2-ethylbenzofuro[3,2-d]pyrimidin-4-yl)-quinoxalin-6-yl-amine;hydrochloride] | > 99000 |  |
| CC(=Nc1cccc(O)c1)c1sc2ccccc2c1O [(2Z)-2-[1-(3-hydroxyanilino)ethylidene]-1-benzothiophen-3-one] | > 3670 |  |
| COC(=O)CSc1nc2cc(C)ccc2cc1C#N [(3-Cyano-7-methyl-quinolin-2-ylsulfanyl)-acetic acid methyl ester] | > 1220 |  |
| Cc1ccc(C2C(C(=O)c3cnn(-c4ccccc4)c3C)C(=O)C(=O)N2CCN(C)C)o1 (stereo not drawn) [(4E)-1-[2-(dimethylamino)ethyl]-4-[hydroxy-(5-methyl-1-phenyl-4-pyrazolyl)methylidene]-5-(5-methyl-2-furanyl)pyrrolidine-2,3-dione] | 4130 |  |
| CC(=NC1CCCC1)c1c(C)[nH]n(-c2nc3ccccc3s2)c1=O [(4Z)-2-(1,3-benzothiazol-2-yl)-4-[1-(cyclopentylamino)ethylidene]-5-methylpyrazol-3-one] | > 1220 |  |
| Cn1c(-c2ccc3c(c2)OCO3)cnc1NCc1ccccc1 [(5-Benzo[1,3]dioxol-5-yl-1-methyl-1H-imidazol-2-yl)-benzyl-amine] | 11200 |  |
| Fc1ccc2nc(Nc3nc4c(s3)CCCC4)sc2c1 [(6-fluoro-1,3-benzothiazol-2-yl)-(4,5,6,7-tetrahydro-1,3-benzothiazol-2-yl)amine] | 639 |  |
